Assay results from US20150253330A1, “PRE-SELECTION OF SUBJECTS FOR THERAPEUTIC TREATMENT WITH AN HSP90 INHIBITOR BASED ON HYPOXIC STATUS” (Synta Pharmaceuticals Corp., priority 2012, published 2015).

Columns and labels:
A549 cells = test: Combinatorial viability analysis, 72 hours; type: cell-based
Method: (§1) For combinatorial analysis, cells were seeded in 96-well plates at a predetermined, optimum growth density for 24 h prior to the addition of drug or vehicle to the culture medium. Drug combinations were applied at a non-constant ratio over a range of concentrations for 72 or 96 hours. […] Cell viability was assessed by either AlamarBlue® (Invitrogen, Carlsbad, Calif.) or CellTiter-Glo® assays and normalized to vehicle controls. For each combination study, the level of growth inhibition (fraction affected) is plotted relative to vehicle control. Data are presented as one relevant combination point and the corresponding single agent data for each cell line tested.

H2009 cells = test: Combinatorial viability analysis, 72 hours; type: cell-based
Method: as §1

H2030 cells = test: Combinatorial viability analysis, 72 hours; type: cell-based
Method: as §1

H358 cells = test: Combinatorial viability analysis, 72 hours; type: cell-based
Method: as §1

MDA-MB-468 = test: 72 hr viability by CTG, breast cancer cell line; type: cell-based; settings: Homo sapiens, MDA-MB-468, Basal A
Method: (§2) Breast cancer is a heterogeneous disease historically broken down into 4 subtypes. Various compounds were tested for their effects in cell viability assays using various breast cancer cell lines. Cellular viability was assessed using the CellTiter-Glo® Luminescent Cell Viability Assay (Promega, Madison, Wis., USA) according to the manufacturer's protocol. KRAS mutant NSCLC cell lines were seeded into 96-well plates based on optimal growth rates determined empirically for each line. Twenty-four hours after plating, cells were dosed with graded concentrations of ganetespib for 72 h. CellTiter-Glo® was added (50% v/v) to the cells, and the plates incubated for 10 min prior to luminescent detection in a SpectraMax® Plus 384 microplate reader (Molecular Devices, Sunnyvale, Calif., USA). Data were normalized to percent of control and IC50 values used to determine the sensitivity of each line. For the comparative analysis study with MEK and PI3K/mTOR inhibitors, A549, H2009, Calu-1, and H358 cells were treated with graded concentrations of ganetespib, AZD6244, or BEZ235 for 72 h and cell viability measured as above.
(§3) Breast cancer, cell lines, marker status, and IC50 in response to ganetespib at 72 hr (viability by CTG).

MCF7 = test: 72 hr viability by CTG, breast cancer cell line; type: cell-based; settings: Homo sapiens, MCF7, Luminal, ER+ PR+
Method: as §2, §3

BT-474 = test: 72 hr viability by CTG, breast cancer cell line; type: cell-based; settings: Homo sapiens, BT-474, Luminal, ER+ PR+ HER2+, viability by CTG (2D)
Method: as §2, §3

OCUB-M = test: 72 hr viability by CTG, breast cancer cell line; type: cell-based; settings: Basal
Method: as §2, §3

SK-BR-3 = test: 72 hr viability by CTG, breast cancer cell line; type: cell-based; settings: Homo sapiens, SK-BR-3, Luminal, HER2+
Method: as §2, §3

advanced NSCLC = test: Phase 2 clinical trial in NSCLC by KRAS, EGFR and ALK mutation status; type: in vivo, human
Method: Patients with advanced NSCLC who failed prior treatments received 200 mg/m^2 of ganetespib as a 1-hr infusion once weekly for 3 of a 4-wk cycle in a Simon two-stage study design assessing primary endpoint of PFS rate at 16 wks. Initial cohorts were defined by mutation status: A) EGFR mutation, KRAS wild-type B) EGFR wild-type, KRAS mutation C) EGFR wild-type, KRAS wild-type (WT). If ≧2/14 patients in A, B or C were progression-free at 16 weeks, enrollment increased to 23 patients for that cohort. Tumor response was assessed every 8 weeks. Cohort D was added to include 35 additional EGFR wild-type and KRAS wild-type patients with adenocarcinoma histology. FISH analysis for ALK translocation, was performed for Cohorts C and D.

[1] = tested on: human KRAS mutant NSCLC tumor xenografts; test: KRAS mutant NSCLC tumor xenografts in vivo; design: species or system mice
Description: Female immunodeficient CD-1 (nude) mice (Charles River Laboratories, Wilmington, Mass.) were maintained in a pathogen-free environment, and all in vivo procedures were approved by the Synta Pharmaceuticals Corp. Institutional Animal Care and Use Committee. A549 NSCLC cells (7.5×10^6) were subcutaneously implanted into the animals. Mice bearing established tumors (100-200 mm^3) were randomized into treatment groups of 8 and i.v. dosed via the tail vein with either vehicle, ganetespib formulated in 10/18 DRD (10% DMSO, 18% Cremophor RH 40, 3.6% dextrose, 68.4% water) or p.o. dosed with BEZ235 formulated in PEG300/NMP (90% PEG300, 10% N-Methylpyrrolidone). Animals were treated with ganetespib at 50 mg/kg weekly or BEZ235 at 10 mg/kg 5 times a week, either alone or in combination. Tumor growth inhibition was determined as described previously. See Proia et al, PLoS One. 2011; 6(4):e18552.

[2] = ganetespib combined with pemetrexed
[3] = ganetespib in combination with gemcitabine
[4] = low nanomolar ganetespib combined with camptothecin
[5] = Cohort C: EGFR wild-type, KRAS wild-type

## CC(C)c1cc(-c2nnc(O)n2-c2ccc3c(ccn3C)c2)c(O)cc1O [ganetespib]
A549 cells; [2]
  Increase in cytotoxicity: marginal increase in cytotoxicity
A549 cells; [3]
  Increased cell death: 1.4 fold
H2009 cells; [2]
  Enhanced cell death: 1.5 fold
H2009 cells; [3]
  Increased cell death: 2.3 fold
H2009 cells; [4]
  Fold increase in cytotoxicity: 1.5 fold
H2030 cells; [2]
  Enhanced cell death: 2.4 fold
H2030 cells; [4]
  Fold increase in cytotoxicity: 3.4 fold
H358 cells; [2]
  Increase in cytotoxicity: marginal increase in cytotoxicity
H358 cells; [3]
  Benefit of combination: no benefit
H358 cells; [4]
  Fold increase in cytotoxicity: 1.4 fold
MDA-MB-468
  IC50: 27 nM
MCF7
  IC50: 25 nM
BT-474
  IC50: 13 nM
OCUB-M
  IC50: 39 nM
SK-BR-3
  IC50: 10 nM
Advanced NSCLC; 200 mg/m^2 once weekly for 3 of a 4-wk cycle, generally grade 1-2
  Adverse events reported in ≧20% of patients: diarrhea, fatigue, nausea, anorexia, constipation, and dyspnea
Advanced NSCLC; ALK+ patients, 4/8
  Objective response rate (CR+PR): 50%
Advanced NSCLC; ALK+ patients, 7/8
  Disease control rate: 88%
Advanced NSCLC; [5]
  Patients with prolonged stable disease (≧16 weeks): seven
  Response in cohort C: durable partial response (PR)
Advanced NSCLC; eight ALK+ patients of cohorts C and D (six of eight)
  ALK+ patients with tumor shrinkage in target lesions: 75%
Advanced NSCLC; single agent 200 mg/m^2 once weekly, without severe liver, ocular, cardiovascular or renal toxicity
  Tolerability: well-tolerated
[1]; ganetespib combined with a PI3K/mTOR inhibitor
  Tumor growth inhibition in the combination arm: considerable improvement in tumor growth inhibition
[1]; single agent
  Growth of KRAS mutant NSCLC tumor xenografts: effectively suppressed the growth
  Tumor regression: did not induce tumor regression
